Measurements reported in the supplement of paper PMC10307832.

What was measured:
Assay in all cases: relative viability (nuclei count vs DMSO), 5 days (fraction); higher = more cells survive
SK-MES-1 = test system: SK-MES-1
Procedure, shortened: (§1)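 Cells from lung cancer lines were seeded into 1536-well plates and, one day later, dosed by pin tool. Treatments were either a single drug or a fixed dose of an anchor drug with five library-drug doses (not always all listed) in √10 steps. After 5 days, nuclei were stained in a one-step fixation (final 0.05% Triton X-100, 1% formaldehyde, 1 ug/ml Hoechst) and counted on 4× images, and relative viability is the treated-to-vehicle nuclei ratio, as the median of duplicate plates.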

HCC-366 = test system: HCC-366
Procedure, shortened: as §1

NCI-H1734 = test system: NCI-H1734
Procedure, shortened: as §1

NCI-H1437 = test system: NCI-H1437
Procedure, shortened: as §1

NCI-H1355 = test system: NCI-H1355
Procedure, shortened: as §1

NCI-H1792 = test system: NCI-H1792
Procedure, shortened: as §1

SK-LU-1 = test system: SK-LU-1
Procedure, shortened: as §1

HCC-827 = test system: HCC-827
Procedure, shortened: as §1

NCI-H647 = test system: NCI-H647
Procedure, shortened: as §1

NCI-H2009 = test system: NCI-H2009
Procedure, shortened: as §1

NCI-H2087 = test system: NCI-H2087
Procedure, shortened: as §1

HARA = test system: HARA
Procedure, shortened: as §1

EKVX = test system: EKVX
Procedure, shortened: as §1

NCI-H1395 = test system: NCI-H1395
Procedure, shortened: as §1

NCI-H2170 = test system: NCI-H2170
Procedure, shortened: as §1

NCI-H1993 = test system: NCI-H1993
Procedure, shortened: as §1

NCI-H2342 = test system: NCI-H2342
Procedure, shortened: as §1

NCI-H661 = test system: NCI-H661
Procedure, shortened: as §1

BEN = test system: BEN
Procedure, shortened: as §1

LOU-NH91 = test system: LOU-NH91
Procedure, shortened: as §1

NCI-H2405 = test system: NCI-H2405
Procedure, shortened: as §1

NCI-H522 = test system: NCI-H522
Procedure, shortened: as §1

## CC(=O)O[C@@]12CO[C@@H]1C[C@H](O)[C@@]1(C)C(=O)[C@H](O)C3=C(C)[C@@H](OC(=O)[C@H](O)[C@@H](NC(=O)OC(C)(C)C)c4ccccc4)C[C@@](O)([C@@H](OC(=O)c4ccccc4)[C@H]21)C3(C)C [Docetaxel] + COc1cccc2cc(-c3nc([C@H]4CC[C@H](C(=O)O)CC4)n4ncnc(N)c34)[nH]c12 [OSI-027] (partner 0.5 µM)
SK-MES-1; first compound 0.0002 µM
  relative viability: 0.621
SK-MES-1; first compound 0.000632 µM
  relative viability: 0.506
SK-MES-1; first compound 0.002 µM
  relative viability: 0.276
SK-MES-1; first compound 0.006325 µM
  relative viability: 0.22
SK-MES-1; first compound 0.02 µM
  relative viability: 0.112
HCC-366; first compound 0.0002 µM
  relative viability: 0.917
HCC-366; first compound 0.000632 µM
  relative viability: 0.553
HCC-366; first compound 0.002 µM
  relative viability: 0.0467
HCC-366; first compound 0.006325 µM
  relative viability: 0.0385
HCC-366; first compound 0.02 µM
  relative viability: 0.0274
NCI-H1734; first compound 0.0002 µM
  relative viability: 0.573
NCI-H1734; first compound 0.000632 µM
  relative viability: 0.482
NCI-H1734; first compound 0.002 µM
  relative viability: 0.307
NCI-H1734; first compound 0.006325 µM
  relative viability: 0.35
NCI-H1734; first compound 0.02 µM
  relative viability: 0.242
NCI-H1437; first compound 0.0002 µM
  relative viability: 0.767
NCI-H1437; first compound 0.000632 µM
  relative viability: 0.861
NCI-H1437; first compound 0.002 µM
  relative viability: 0.311
NCI-H1437; first compound 0.006325 µM
  relative viability: 0.162
NCI-H1437; first compound 0.02 µM
  relative viability: 0.114
NCI-H1355; first compound 0.0002 µM
  relative viability: 0.431
NCI-H1355; first compound 0.000632 µM
  relative viability: 0.386
NCI-H1355; first compound 0.002 µM
  relative viability: 0.252
NCI-H1355; first compound 0.006325 µM
  relative viability: 0.275
NCI-H1355; first compound 0.02 µM
  relative viability: 0.198
NCI-H1792; first compound 0.0002 µM
  relative viability: 0.673
NCI-H1792; first compound 0.000632 µM
  relative viability: 0.699
NCI-H1792; first compound 0.002 µM
  relative viability: 0.545
NCI-H1792; first compound 0.006325 µM
  relative viability: 0.409
NCI-H1792; first compound 0.02 µM
  relative viability: 0.186
SK-LU-1; first compound 0.0002 µM
  relative viability: 0.353
SK-LU-1; first compound 0.000632 µM
  relative viability: 0.26
SK-LU-1; first compound 0.002 µM
  relative viability: 0.228
SK-LU-1; first compound 0.006325 µM
  relative viability: 0.197
SK-LU-1; first compound 0.02 µM
  relative viability: 0.144
HCC-827; first compound 0.0002 µM
  relative viability: 0.783
HCC-827; first compound 0.000632 µM
  relative viability: 0.848
HCC-827; first compound 0.002 µM
  relative viability: 0.52
HCC-827; first compound 0.006325 µM
  relative viability: 0.226
HCC-827; first compound 0.02 µM
  relative viability: 0.169
NCI-H647; first compound 0.0002 µM
  relative viability: 0.524
NCI-H647; first compound 0.000632 µM
  relative viability: 0.432
NCI-H647; first compound 0.002 µM
  relative viability: 0.229
NCI-H647; first compound 0.006325 µM
  relative viability: 0.0929
NCI-H647; first compound 0.02 µM
  relative viability: 0.0717
NCI-H2009; first compound 0.0002 µM
  relative viability: 0.618
NCI-H2009; first compound 0.000632 µM
  relative viability: 0.66
NCI-H2009; first compound 0.002 µM
  relative viability: 0.491
NCI-H2009; first compound 0.006325 µM
  relative viability: 0.231
NCI-H2009; first compound 0.02 µM
  relative viability: 0.134
NCI-H2087; first compound 0.0002 µM
  relative viability: 0.464
NCI-H2087; first compound 0.000632 µM
  relative viability: 0.359
NCI-H2087; first compound 0.002 µM
  relative viability: 0.142
NCI-H2087; first compound 0.006325 µM
  relative viability: 0.113
NCI-H2087; first compound 0.02 µM
  relative viability: 0.111
HARA; first compound 0.0002 µM
  relative viability: 0.341
HARA; first compound 0.000632 µM
  relative viability: 0.159
HARA; first compound 0.002 µM
  relative viability: 0.0997
HARA; first compound 0.006325 µM
  relative viability: 0.106
HARA; first compound 0.02 µM
  relative viability: 0.0539
EKVX; first compound 0.0002 µM
  relative viability: 0.672
EKVX; first compound 0.000632 µM
  relative viability: 0.607
EKVX; first compound 0.002 µM
  relative viability: 0.35
EKVX; first compound 0.006325 µM
  relative viability: 0.272
EKVX; first compound 0.02 µM
  relative viability: 0.128
NCI-H1395; first compound 0.0002 µM
  relative viability: 0.609
NCI-H1395; first compound 0.000632 µM
  relative viability: 0.657
NCI-H1395; first compound 0.002 µM
  relative viability: 0.538
NCI-H1395; first compound 0.006325 µM
  relative viability: 0.373
NCI-H1395; first compound 0.02 µM
  relative viability: 0.272
NCI-H2170; first compound 0.0002 µM
  relative viability: 0.734
NCI-H2170; first compound 0.000632 µM
  relative viability: 0.754
NCI-H2170; first compound 0.002 µM
  relative viability: 0.339
NCI-H2170; first compound 0.006325 µM
  relative viability: 0.256
NCI-H1993; first compound 0.0002 µM
  relative viability: 0.556
NCI-H1993; first compound 0.000632 µM
  relative viability: 0.616
NCI-H1993; first compound 0.002 µM
  relative viability: 0.6
NCI-H1993; first compound 0.006325 µM
  relative viability: 0.501
NCI-H1993; first compound 0.02 µM
  relative viability: 0.414
NCI-H2342; first compound 0.0002 µM
  relative viability: 0.592
NCI-H2342; first compound 0.000632 µM
  relative viability: 0.609
NCI-H2342; first compound 0.002 µM
  relative viability: 0.502
NCI-H2342; first compound 0.006325 µM
  relative viability: 0.46
NCI-H2342; first compound 0.02 µM
  relative viability: 0.423
NCI-H661; first compound 0.0002 µM
  relative viability: 0.694
NCI-H661; first compound 0.000632 µM
  relative viability: 0.727
NCI-H661; first compound 0.002 µM
  relative viability: 0.521
NCI-H661; first compound 0.006325 µM
  relative viability: 0.29
NCI-H661; first compound 0.02 µM
  relative viability: 0.307
BEN; first compound 0.0002 µM
  relative viability: 0.283
BEN; first compound 0.000632 µM
  relative viability: 0.285
BEN; first compound 0.002 µM
  relative viability: 0.241
BEN; first compound 0.006325 µM
  relative viability: 0.181
BEN; first compound 0.02 µM
  relative viability: 0.165
LOU-NH91; first compound 0.0002 µM
  relative viability: 0.698
LOU-NH91; first compound 0.000632 µM
  relative viability: 0.733
LOU-NH91; first compound 0.002 µM
  relative viability: 0.466
LOU-NH91; first compound 0.006325 µM
  relative viability: 0.344
LOU-NH91; first compound 0.02 µM
  relative viability: 0.3
NCI-H2405; first compound 0.0002 µM
  relative viability: 0.666
NCI-H2405; first compound 0.000632 µM
  relative viability: 0.628
NCI-H2405; first compound 0.002 µM
  relative viability: 0.422
NCI-H2405; first compound 0.006325 µM
  relative viability: 0.333
NCI-H2405; first compound 0.02 µM
  relative viability: 0.255
NCI-H522; first compound 0.0002 µM
  relative viability: 0.666
NCI-H522; first compound 0.000632 µM
  relative viability: 0.657
NCI-H522; first compound 0.002 µM
  relative viability: 0.541
NCI-H522; first compound 0.006325 µM
  relative viability: 0.496
NCI-H522; first compound 0.02 µM
  relative viability: 0.426
